In patent US12661410B2, “Compounds for targeted degradation of RET” (C4 Therapeutics, Inc., priority 2020, dated 2026):
Positions count from the first letter of the chain named. Like-named read-outs stand apart in the source and are kept apart here.

Columns and labels:
RET(KD: 658-1114 G810R) = biological target: T1, RET(KD: 658-1114 G810R) (Homo sapiens, UniProt P07949, G810R); experiment: HiBiT-Degradation, RET G810R degradation assay (Nano-Glo HiBiT Lytic), 293T.165 cells; assay type: cell-based; details: for Emax / DC50: 6.0 hours; for Emax: % remaining protein, read-out: 293T.165 RET(KD: 658-1114 G810R) 6.0 hours (Emax); for DC50: read-out: 293T.165 RET(KD: 658-1114 G810R) 6.0 hours (DC50)
T1 construct: 658-1114; expressed in transfected cells; host or cells: 293T.165 (293T cells, generated in-house)
T1 sequence (P07949 658-1114 G810R): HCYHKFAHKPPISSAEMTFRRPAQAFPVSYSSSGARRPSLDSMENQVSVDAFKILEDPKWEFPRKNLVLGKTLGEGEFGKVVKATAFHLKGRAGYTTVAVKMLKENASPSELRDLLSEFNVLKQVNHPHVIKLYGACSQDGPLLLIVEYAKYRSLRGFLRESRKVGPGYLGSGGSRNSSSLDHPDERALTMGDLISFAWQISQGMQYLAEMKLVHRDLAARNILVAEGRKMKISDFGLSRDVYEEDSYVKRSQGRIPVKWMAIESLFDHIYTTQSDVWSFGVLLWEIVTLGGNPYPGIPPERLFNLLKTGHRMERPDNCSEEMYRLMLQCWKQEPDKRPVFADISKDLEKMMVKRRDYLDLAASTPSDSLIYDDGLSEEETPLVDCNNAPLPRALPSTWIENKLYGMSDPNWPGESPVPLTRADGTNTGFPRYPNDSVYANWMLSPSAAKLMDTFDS
Outline: (§1)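 Degradation quantified by HiBiT lytic luminescence in 293T cells expressing tagged WT or G810R RET kinase domain after 6 h dosing up to 10 μM; DC50 and Emax fitted.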

RET (658-1114) = biological target: T2, RET (658-1114) (Homo sapiens, UniProt P07949); experiment: HiBiT-Degradation, RET wild-type degradation assay (Nano-Glo HiBiT Lytic), 293T.144 cells; assay type: cell-based; details: for Emax / DC50: 6.0 hours; for Emax: read-out: 293T.144 RET (658-1114) 6.0 hours (Emax); for DC50: read-out: 293T.144 RET (658-1114) 6.0 hours (DC50)
T2 construct: 658-1114; expressed in transfected cells; host or cells: 293T.144 (293T cells, generated in-house)
T2 sequence (P07949 658-1114): T1 sequence (P07949 658-1114 G810R) with R153G
Outline: as §1

[1] = half-maximal degradation concentration

Structure (SMILES)	293T.165 RET(KD: 658-1114 G810R) 6.0 hours (IP) [nM] (RET(KD: 658-1114 G810R))	Emax (RET(KD: 658-1114 G810R))	DC50 (RET(KD: 658-1114 G810R); [1])	293T.144 RET (658-1114) 6.0 hours (IP) [nM] (RET (658-1114))	Emax (RET (658-1114); % remaining protein)	DC50 (RET (658-1114); [1])	293T.165 RET(KD: 658-1114 G810R) 6.0 hours (Emax) (RET(KD: 658-1114 G810R); HiBiT-Degradation)	293T.165 RET(KD: 658-1114 G810R) 6.0 hours (IP) [nM] (RET(KD: 658-1114 G810R); HiBiT-Degradation)	DC50 (RET(KD: 658-1114 G810R); HiBiT-Degradation)	293T.144 RET (658-1114) 6.0 hours (IP) [nM] (RET (658-1114); HiBiT-Degradation)	DC50 (RET (658-1114); HiBiT-Degradation)	Emax (RET (658-1114); HiBiT-Degradation)
CCC1(C(=O)NC(C)C)CCN(c2ccc(-c3nc(-c4cnn([C@H]5CC[C@H](N6CCC(c7ccc(N[C@H]8CCC(=O)NC8=O)cc7F)CC6)CC5)c4)cn4ncc(C#N)c34)cn2)CC1 (single isomer, unassigned) [Compound 123]	++++ (<50 nM = ++++)	< 30%	< 50 nM	++++ (<50 nM = ++++)	< 30%	< 50 nM						
COc1ccc(CC2(OC)CCN(c3ccc(-c4nc(-c5cnn([C@H]6CC[C@@H](N7CCN(c8ccc(NC9CCC(=O)NC9=O)cc8F)CC7)CC6)c5)cn5ncc(C#N)c45)cn3)CC2)cn1 (single isomer, unassigned) [Compound 147, 6-(1-((1s, 4s)-4-(4-(4-((2,6-Dioxopiperidin-3-yl)amino)-2-fluorophenyl)piperazin-1-yl)cyclohexyl)-1H-pyrazol-4-yl)-4-(6-(4-methoxy-4-((6-methoxypyridin-3-yl)methyl)piperidin-1-yl)pyridin-3-yl)pyrazolo[1,5-a]pyrazine-3-carbonitrile]	++++ (<50 nM = ++++)	< 30%	< 100 nM	++++ (<50 nM = ++++)	< 30%	< 50 nM						
CCC1(C(=O)NC2CCC2)CCN(c2ccc(-c3nc(-c4cnn([C@H]5CC[C@H](N6CCC(c7ccc(NC8CCC(=O)NC8=O)cc7Cl)CC6)CC5)c4)cn4ncc(C#N)c34)cn2)CC1 (single isomer, unassigned) [Compound 133, 1-[5-[6-[1-[4-[4-[2-chloro-4-[(2,6-dioxo-3-piperidyl)amino]phenyl]-1-piperidyl]cyclohexyl]pyrazol-4-yl]-3-cyano-pyrazolo[1,5-a]pyrazin-4-yl]-2-pyridyl]-N-cyclobutyl-4-ethyl-piperidine-4-carboxamide]		< 30%	< 50 nM		< 30%	< 50 nM						
N#Cc1cnn2cc(-c3cnn([C@H]4CC[C@H](N5CCN(c6c(F)cc(NC7CCC(=O)NC7=O)cc6F)CC5)CC4)c3)nc(-c3ccc(N4CC[C@H](OCc5ccccn5)C4)nc3)c12 (mixture of isomers) [Compound 211, 6-[1-[4-[4-[4-[(2,6-dioxo-3-piperidyl)amino]-2,6-difluoro-phenyl]piperazin-1-yl]cyclohexyl]pyrazol-4-yl]-4-[6-[rac-(3S)-3-(2-pyridylmethoxy)pyrrolidin-1-yl]-3-pyridyl]pyrazolo[1,5-a]pyrazine-3-carbonitrile]	++++ (<50 nM = ++++)	< 30%	< 50 nM	++++ (<50 nM = ++++)	< 30%	< 50 nM						
COc1ccc(CN2C3COCC2CN(c2ccc(-c4nc(-c5cnn([C@H]6CC[C@H](N7CCN(c8cc(F)c(NC9CCC(=O)NC9=O)cc8F)CC7)CC6)c5)cn5ncc(C#N)c45)cn2)C3)cn1 (relative stereo) [Compound 162, 6-[1-[4-[4-[4-[(2,6-dioxo-3-piperidyl)amino]-2,5-difluoro-phenyl]piperazin-1-yl]cyclohexyl]pyrazol-4-yl]-4-[6-[9-[(6-methoxy-3-pyridyl)methyl]-3-oxa-7,9-diazabicyclo[3.3.1]nonan-7-yl]-3-pyridyl]pyrazolo[1,5-a]pyrazine-3-carbonitrile]	++++ (<50 nM = ++++)	< 30%	< 100 nM	++++ (<50 nM = ++++)	< 30%	< 50 nM						
N#Cc1cnn2cc(-c3cnn([C@H]4CC[C@@H](N5CCN(c6ccc(N[C@@H]7CCC(=O)NC7=O)cc6F)CC5)CC4)c3)nc(-c3ccc(N4CC5CC(C4)N5C(=O)c4c(F)cccc4F)nc3)c12 (single isomer, unassigned) [Compound 172]	++++ (<50 nM = ++++)	< 30%	< 50 nM	++++ (<50 nM = ++++)	< 30%	< 50 nM						
N#Cc1cnn2cc(-c3cnn(C4CCN(C(=O)CN5CCC(c6ccc(OC7CCC(=O)NC7=O)cc6F)CC5)CC4)c3)nc(-c3ccc(N4CCN(Cc5cc(F)ccn5)CC4)cc3)c12 (centres unmarked) [Compound 38, 6-(1-(1-(2-(4-(4-((2,6-Dioxopiperidin-3-yl)oxy)-2-fluorophenyl)piperidin-1-yl)acetyl)piperidin-4-yl)-1H-pyrazol-4-yl)-4-(4-(4-((4-fluoropyridin-2-yl)methyl)piperazin-1-yl)phenyl)pyrazolo[1,5-a]pyrazine-3-carbonitrile]		< 50%	< 100 nM				+++ (<50% = +++)	++++ (< 50 nM = ++++)	< 100 nM	++++ (< 50 nM = ++++)	< 50 nM	< 30%

The next lines start with the values.

293T.165 RET(KD: 658-1114 G810R) 6.0 hours (IP) [nM] (RET(KD: 658-1114 G810R))	Emax (RET(KD: 658-1114 G810R))	DC50 (RET(KD: 658-1114 G810R); [1])	293T.144 RET (658-1114) 6.0 hours (IP) [nM] (RET (658-1114))	Emax (RET (658-1114); % remaining protein)	DC50 (RET (658-1114); [1])	293T.165 RET(KD: 658-1114 G810R) 6.0 hours (Emax) (RET(KD: 658-1114 G810R); HiBiT-Degradation)	293T.165 RET(KD: 658-1114 G810R) 6.0 hours (IP) [nM] (RET(KD: 658-1114 G810R); HiBiT-Degradation)	DC50 (RET(KD: 658-1114 G810R); HiBiT-Degradation)	293T.144 RET (658-1114) 6.0 hours (IP) [nM] (RET (658-1114); HiBiT-Degradation)	DC50 (RET (658-1114); HiBiT-Degradation)	Emax (RET (658-1114); HiBiT-Degradation)	Structure (SMILES)
++++ (<50 nM = ++++)	< 30%	< 50 nM	++++ (<50 nM = ++++)	< 30%	< 50 nM							N#Cc1cnn2cc(-c3cnn(C4CCN(C(=O)CC5(O)CCN(c6ccc(NC7CCC(=O)NC7=O)cc6F)CC5)CC4)c3)nc(-c3ccc(N4CCC5(CC4)OCc4cccnc45)nc3)c12 (centres unmarked) [Compound 113, 6-[1-[1-[2-[1-[4-[(2,6-dioxo-3-piperidyl)amino]-2-fluoro-phenyl]-4-hydroxy-4-piperidyl]acetyl]-4-piperidyl]pyrazol-4-yl]-4-(6-spiro[5H-furo[3,4-b]pyridine-7,4′-piperidine]-1′-yl-3-pyridyl)pyrazolo[1,5-a]pyrazine-3-carbonitrile]
	< 50%	< 100 nM				+++ (<50% = +++)	++++ (< 50 nM = ++++)	< 100 nM	++++ (< 50 nM = ++++)	< 50 nM	< 30%	N#Cc1cnn2cc(-c3ccc(N4CCN(C(=O)CC5(O)CCN(c6ccc(NC7CCC(=O)NC7=O)cc6)CC5)CC4)cc3)cc(-c3ccc(N4CCN(C(=O)Cc5ccc(F)cn5)CC4)nc3)c12 (centres unmarked) [Compound 49, 6-[4-[4-[2-[1-[4-[(2,6-dioxo-3-piperidyl)amino]phenyl]-4-hydroxy-4-piperidyl]acetyl]piperazin-1-yl]phenyl]-4-[6-[4-[2-(5-fluoro-2-pyridyl)acetyl]piperazin-1-yl]-3-pyridyl]pyrazolo[1,5-a]pyridine-3-carbonitrile]
++++ (<50 nM = ++++)	< 50%	< 100 nM	++++ (<50 nM = ++++)	< 30%	< 50 nM							CCC1(C(=O)NC(C)C)CCN(c2ccc(-c3nc(-c4cnn(C5CCN(C(=O)CC6(O)CC7(CN(c8ccc(NC9CCC(=O)NC9=O)cc8F)C7)C6)CC5)c4)cn4ncc(C#N)c34)cn2)CC1 (centres unmarked) [Compound 97, 1-[5-[3-cyano-6-[1-[1-[2-[2-[4-[(2,6-dioxo-3-piperidyl)amino]-2-fluoro-phenyl]-6-hydroxy-2-azaspiro[3.3]heptan-6-yl]acetyl]-4-piperidyl]pyrazol-4-yl]pyrazolo[1,5-a]pyrazin-4-yl]-2-pyridyl]-4-ethyl-N-isopropyl-piperidine-4-carboxamide]
